Source: EP0374886A2, “Antiretroviral furan ketones” (MERRELL DOW PHARMACEUTICALS INC., priority 1988, dated 1990)
In brackets after ≈: the same amount, converted by molar mass.

Legend:
[1] = system: Moloney murine leukemia virus (MoLV); test: in vitro XC plaque assay (inhibition of virus plaque growth in mouse SC-1 cells / rat XC cells); format: cell-based; conditions: SC1, concentration giving a 50% inhibition of virus plaque growth, compounds added 2 hours prior to virus, read-out: IC₅₀
Description: The ability of the furan ketone derivatives of this invention to act as anti-retroviral agents can be demonstrated by their ability to inhibit the growth and replication of murine leukemia virus, an oncogenic retrovirus, as determined by an in vitro XC plaque assay. This assay was performed according to the method of Rowe et al. (Virology, 1970, 42, 1136-39) as previously described by L. Hsu, et al. (J. Virological Methods, 1980, 1, 167-77) and T. L. Bowlin and M. R. Proffitt (J. Interferon Res., 1983, 3(1), 19-31). Mouse SC-1 cells (fibroblast) (10⁵) were seeded into each well of 6-well cluster plates (Costar #3506) in 4 ml Minimum Essential Medium (MEM) with 10% Fetal Calf Serum (FCS). Following an 18 hour incubation period (37°C), Moloney murine leukemia virus (MoLV) was applied at a predetermined titer to give optimal (i.e. countable) numbers of virus plaques. Compounds were added 2 hours prior to addition of the virus. Three days later the culture medium was removed, the SC-1 cell monolayers were exposed to UV irradiation (1800 ergs), and rat XC cells (10⁶) were seeded into each well in 4 ml MEM. Following an additional 3 day incubation (37°C), these cells were fixed with ethyl alcohol (95%) and stained with 0.3% crystal violet. Plaques were then counted under low magnification. The antiviral activities of various compounds of this invention are tabulated in Table I in terms of the IC₅₀, i,e, the concentration giving a 50% inhibition of virus plaque growth.

HIV1GB8 strain of HIV-1 = test: anti-HIV activity in T-cells (JM cells): syncytial cell count and p24 antigen after 4 days; format: cell-based; conditions: for SYNCYTIAL COUNT: untreated 29; for P24 ANTIGEN: untreated 801; for inhibition at 15 µg/mL / inhibition at 30 µg/mL: Human immunodeficiency virus 1, T-cell, 96 h, inhibition of syncytial count
Description: To further confirm the antiretroviral activity of these compounds, methyl 5-tetradecyloxy-2-furyl ketone and methyl 5-tetradecylthiomethyl-2-furyl ketone were evaluated for activity against HIV. Following overnight pretreatment of T-cells (JM cells) with the HIV1GB8 strain of HIV-1, the test compounds were added to the cell cultures at concentrations of 15 and 30 µg/ml. After 4 days the number of synctial cells in the cell culture and the amount of p24 antigen, also a measure of viral replication, were determined.

CCCCCCCCCCCCCCOc1ccc(C(=O)CCCCCC)o1 [Hexyl 5-tetradecyloxy-2-furyl ketone]
IC50 [1]: 5 to 10 µg/mL (≈ 12.7 to 25.5 µM)

CCCCCCCCCCCCC(C)COc1ccc(C(C)=O)o1 (centres unmarked) [Methyl 5-(2-methyltetradecyloxy)-2-furyl ketone]
IC50 [1]: 1 to 5 µg/mL (≈ 2.97 to 14.9 µM)

CC(=O)c1ccc(OCCC(C)CCCC(C)CCCC(C)C)o1 (centres unmarked) [Methyl 5-(3,7,11-trimethyldodecyloxy)-2-furyl ketone]
IC50 [1]: < 1 µg/mL

CCCCCCCC/C=C\CCCCCCCCOc1ccc(C(C)=O)o1 [Methyl 5-(cis-9-octadecenyl)oxy-2-furyl ketone]
IC50 [1]: < 1 µg/mL

CCCCCCCCCCOc1ccc(C(C)=O)o1 [Methyl 5-decyloxy-2-furyl ketone]
IC50 [1]: 1 to 10 µg/mL (≈ 3.75 to 37.5 µM)

CCCCCCCCCCCCc1ccc(C(C)=O)o1 [Methyl 5-dodecyl-2-furyl ketone]
IC50 [1]: 5 to 10 µg/mL (≈ 18 to 35.9 µM)

CCCCCCCCCCCCOc1ccc(C(C)=O)o1 [Methyl 5-dodecyloxy-2-furyl ketone]
IC50 [1]: 1 to 10 µg/mL (≈ 3.4 to 34 µM)

CCCCCCCCCCCCCCCCOc1ccc(C(C)=O)o1 [Methyl 5-hexadecyloxy-2-furyl ketone]
IC50 [1]: 1 to 10 µg/mL (≈ 2.85 to 28.5 µM)

CCCCCCCCCCCCCCCCCCOc1ccc(C(C)=O)o1 [Methyl 5-octadecyloxy-2-furyl ketone]
IC50 [1]: > 10 µg/mL

CCCCCCCCCCCCCCCOc1ccc(C(C)=O)o1 [Methyl 5-pentadecyloxy-2-furyl ketone]
IC50 [1]: 5 to 10 µg/mL (≈ 14.9 to 29.7 µM)

CCCCCCCCCCCCCCc1ccc(C(C)=O)o1 [Methyl 5-tetradecyl-2-furyl ketone]
IC50 [1]: 1 to 10 µg/mL (≈ 3.26 to 32.6 µM)

CCCCCCCCCCCCCCOc1ccc(C(C)=O)o1 [Methyl 5-tetradecyloxy-2-furyl ketone]
IC50 [1]: 4 µg/mL (≈ 12.4 µM) | SYNCYTIAL COUNT (HIV1GB8 strain of HIV-1; 15 µg/ml): 19 | P24 ANTIGEN (HIV1GB8 strain of HIV-1; 15 µg/ml): 450 pg X 10³/ml | SYNCYTIAL COUNT (HIV1GB8 strain of HIV-1; 30 µg/ml): 0 | inhibition at 15 µg/mL (HIV1GB8 strain of HIV-1; 15 µg/ml): 34% | inhibition at 30 µg/mL (HIV1GB8 strain of HIV-1; 30 µg/ml): 100%

CCCCCCCCCCCCCCOCc1ccc(C(C)=O)o1 [Methyl 5-tetradecyloxymethyl-2-furyl ketone]
IC50 [1]: 1 to 10 µg/mL (≈ 2.97 to 29.7 µM)

CCCCCCCCCCCCCCSc1ccc(C(C)=O)o1 [Methyl 5-tetradecylthio-2-furyl ketone]
IC50 [1]: 1 to 10 µg/mL (≈ 2.95 to 29.5 µM)

CCCCCCCCCCCCCCSCc1ccc(C(C)=O)o1 [Methyl 5-tetradecylthiomethyl-2-furyl ketone]
IC50 [1]: 1 µg/mL (≈ 2.84 µM) | SYNCYTIAL COUNT (HIV1GB8 strain of HIV-1; 15 µg/ml): 3 | P24 ANTIGEN (HIV1GB8 strain of HIV-1; 15 µg/ml): 152 pg X 10³/ml | SYNCYTIAL COUNT (HIV1GB8 strain of HIV-1; 30 µg/ml): 0 | inhibition at 15 µg/mL (HIV1GB8 strain of HIV-1; 15 µg/ml): 90% | inhibition at 30 µg/mL (HIV1GB8 strain of HIV-1; 30 µg/ml): 100%

CCCCCCCCCCCCCCOc1ccc(C(=O)C(C)(C)C)o1 [t-Butyl 5-tetradecyloxy-2-furyl ketone]
IC50 [1]: 5 to 10 µg/mL (≈ 13.7 to 27.4 µM)
